Several values for one entry are separate records, joined by “and”; a condition that tells them apart may be missing. Equal entries are not always repeated.
What was measured:
[1] = Example 3: binding Avidin to 100 mg sterile talc, Pierce 660 nm total protein assay of supernatants and washes
Procedure: Collect the supernatant liquid from two tubes containing the two highest concentrations of Avidin at varying points.
4. Run total protein assay using Pierce microplate kit and read plate in plate reader.
6. Wash all tubes in PBS two times, collecting the supernatant liquid from each wash ONLY from the two highest concentrations of Avidin (tubes labeled 1-2b, 1-2c, and 2-2b, 2-2c).
7. Continue to wash 3× with 0.5 mL of 0.2% EDTA.
8. Collect the supernatant from each wash and transfer to the new tubes only from the original tubes with the highest concentration of Avidin (50 μM and 5 μM). Collect only the FIRST wash with EDTA solution for the other tubes.
10. Run the total protein assay (see e.g., Example 1) using all the collected supernatant liquid.
The shape is similar to a nugget, and the calculations will substitute it's geometry with spheres. […] Less than 5% is below that range, and above that range.

[2] = Example 4: amount of Avidin saturating 100 mg talc, Pierce total protein assay of supernatant; type: binding
From the text: 2. Collect the supernatant from each tube but discard the pellet.
3. Run the Pierce total protein assay using the following dilutions of the collected supernatant.
4. Read plate in the plate reader (absorbance assay) at 660 nm wavelength.

[3] = Example 2: Avidin and Avidin-Rhodamine binding to talc after PBS and 0.2% EDTA washes, fluorescent microscope; details: 100 mg talc; 3x PBS, 3x 0.2% EDTA washes
Procedure: The resulting mixtures were then washed with PBS and then washed with 0.2% EDTA.
3. Mix 1 mL of 100 μM of Avidin with 500 μL of 30.3 μM of Avidin Rhodamine (keep lights off).
4. […] Mix well to bring the dry talc powder to evenly distributed reaction solution.
8. Place tubes on the rotator and incubate overnight at 4° C.
5. Continue to wash all “b” labeled tubes with 0.2% EDTA. Wash 3× in 0.5 mL EDTA.
7. View slides under fluorescent microscope.

[4] = Example 12: hot and cold Avidin mix binding to talc, repeat with controls, OD 450 nm
Procedure: The following Example repeated the hot/cold experiment shown in Example 10, with the addition of multiple controls.
1. Prepare 10 mL of 40 ng/mL (or […]) HRP Avidin in 1×PBS using 5.75 mg/mL or 32.5 μM of HRP Avidin stock solution.
6. Weigh 8 mg of Avidin (cold Avidin), then resuspend it in 2 mL of PBS that contains 40 ng/mL of “hot” Avidin. So the solution will now be 40 ng/mL hot Avidin+4 mg/mL of Cold Avidin. Label this tube as #1.
7. Make 3 mL of 1:10 dilution of solution in Tube #1 and make labeled Tube #2 containing 2.7 mL of 40 ng/mL in Hot Avidin solution in PBS+300 μL of Tube #1. The solution in the tube will contain 40 ng/mL of Hot Avidin+400 μg of Cold Avidin.
8. Make 1:2 dilution of solution in Tube #2 using as a diluted solvent of […] of Hot Avidin in PBS. Added 1 mL of Hot Avidin+1 mL of Tube #2. The final concentration will be 40 ng/mL of Hot Avidin+200 μg/mL of Cold Avidin. Label this tube as Tube #3.
9. Make 1:2 dilution of solution in Tube #3, using as a solvent of 40 ng/mL Hot Avidin in PBS Prepare 2 mL of solution: 1 mL of 40 ng/mL of Hot Avidin in PBS+1 mL of Tube #3 The final concentration will be 40 ng/mL of hot Avidin+100 μg/mL of Cold Avidin. Label this tube as Tube #4.
3. Wash the plate 3× with 300 μL PBS containing 10% FBS.
7. Add 100 μL of Stop Solution 2.
8. Read absorbance at 450 nm using the plate reader.

[5] = Coupling of avidin to talc, binding capacity (general description)
[6] = Example 14: talc bound to HRP- and cold Avidin, 48 hours incubation in PBS containing 10% FBS, OD 450 nm; type: physicochemical; details: 48 hours in PBS containing 10% FBS
Procedure: Purpose: To check how strong the conjugate of hot/cold Avidin to Talc is. […] Absorbance will be checked twice—once before washing with PBS containing 10% FBS and after 48 hours, washing will be done.
1. Prepare 10 mL of 40 ng/mL (or 260 μM) HRP Avidin in 1×PBS using 5.75 mg/mL or 32.5 uM of HRP Avidin stock solution.
6. Weigh 8 mg of Avidin (cold Avidin), then resuspend it in 2 mL of PBS containing 40 ng/mL of “hot” Avidin. So the solution will now be 40 ng/mL hot Avidin+4 mg/mL of Cold Avidin. Label this tube as #1.
14. […] Two identical microplates need to be set up, labeling them as: plate#I and plate#2. Design of the plate:
3. Wash both plates 3× with 300 μL PBS.
5. […] Mix constantly, cover plate with Aluminum foil.
6. Add 100 μL of TMB to samples in plate #1.
8. After incubation with TMB is over, add 100 μL of Stop Solution 2.
9. Read absorbance at 450 nm using the plate reader.
3. Collect 100 μL supernatant from samples except native controls and load on same plate.
4. Wash plate except supernatant samples 3× with 300 μL PBS.
6. Add 100 μL of TMB to all samples in plate#2.
8. After incubation with TMB is over add 100 μL of Stop Solution 2.

Avidin: Avidin from egg white (Sigma, Cat. A9275), unlabeled (cold) Avidin
AVIDIN in supernatant after incubation ([1]; 198.4 μg Avidin + 100 mg talc): 13.7 μg/0.5 ml
Avidin binded to talc ([1]; 198.4 μg Avidin + 100 mg talc): 184.7 µg
Saturation of AVIDIN to the combine surface of 100 mg talc ([1]; 198.4 μg Avidin added): 2.48 μg/cm^2
AVIDIN in supernatant after incubation ([1]; 198.4 μg Avidin in 0.5 ml + 100 mg talc): 27.4 µg/mL
Amount of Avidin removed by wash ([1]; 198.4 μg, 1st wash with EDTA): 15.8 µg/mL
Amount of Avidin removed by wash ([1]; 198.4 μg, 1st wash with PBS): 31.4 µg/mL
Amount of Avidin removed by wash ([1]; 198.4 μg, 2nd wash with EDTA): 19.8 µg/mL
Amount of Avidin removed by wash ([1]; 198.4 μg, 2nd wash with PBS): 27.6 µg/mL
Amount of Avidin removed by wash ([1]; 198.4 μg, 3rd wash with EDTA): 13 µg/mL
Amount of Avidin removed by wash ([1]; 198.4 μg, 3rd wash with PBS): 32.7 µg/mL
AVIDIN in supernatant after incubation ([1]; 1650.3 μg Avidin + 100 mg talc): 1185 μg/0.5 ml
Avidin binded to talc ([1]; 1650.3 μg Avidin + 100 mg talc): 465.3 µg
Saturation of AVIDIN to the combine surface of 100 mg talc ([1]; 1650.3 μg Avidin added): 6.25 μg/cm^2
AVIDIN in supernatant after incubation ([1]; 1650.3 μg Avidin in 0.5 ml + 100 mg talc): 2370 µg/mL
Amount of Avidin removed by wash ([1]; 1650.3 μg, 1st wash with EDTA): 13.2 µg/mL
Amount of Avidin removed by wash ([1]; 1650.3 μg, 1st wash with PBS): 307.4 µg/mL
Amount of Avidin removed by wash ([1]; 1650.3 μg, 2nd wash with EDTA): 12.3 µg/mL
Amount of Avidin removed by wash ([1]; 1650.3 μg, 2nd wash with PBS): 67.3 µg/mL
Amount of Avidin removed by wash ([1]; 1650.3 μg, 3rd wash with EDTA): 13.2 µg/mL
Amount of Avidin removed by wash ([1]; 1650.3 μg, 3rd wash with PBS): 40.3 µg/mL
release of Avidin from talc surface during washes ([1]; 3x PBS, 3x 0.2% EDTA): Only first wash removed quantifiable amounts of Avidin from talc surface
saturation of talc particles ([1]; highest concentration of Avidin (50 μM), 100 mg talc): not fully saturated
Avidin binded with talc ([2]; 330 μg/ml Avidin added): 110.4 µg/mL
Avidin in supernatant ([2]; 330 μg/ml Avidin added): 219.6 μg, ml
Avidin per talc surface ([2]; 330 μg/ml Avidin added): 1.5 μg/cm2
Avidin binded with talc ([2]; 3300 μg/ml Avidin added): 2452.7 µg/mL
Avidin in supernatant ([2]; 3300 μg/ml Avidin added): 847.3 μg, ml
Avidin per talc surface ([2]; 3300 μg/ml Avidin added): 33.0 μg/cm2 and 33 μg/cm2
Avidin binded with talc ([2]; 6600 μg/ml Avidin added): 4631.5 µg/mL
Avidin in supernatant ([2]; 6600 μg/ml Avidin added): 1968.5 μg, ml
Avidin per talc surface ([2]; 6600 μg/ml Avidin added): 62.3 μg/cm2
Avidin binded with talc ([2]; 13200 μg/ml Avidin added): 7952.7 µg/mL
Avidin in supernatant ([2]; 13200 μg/ml Avidin added): 5247.3 μg, ml
Avidin per talc surface ([2]; 13200 μg/ml Avidin added): 106.9 μg/cm2
Avidin binded with talc ([2]; 19800 μg/ml Avidin added): 12166.7 µg/mL
Avidin in supernatant ([2]; 19800 μg/ml Avidin added): 7633.3 μg, ml
Avidin per talc surface ([2]; 19800 μg/ml Avidin added): 163.5 μg/cm2
saturation of talc particles ([2]; increasing concentrations of Avidin): not fully saturated
binding to talc after washing [3]: remained bound to talc despite multiple washes
Efficiency of binding, OD ([4]; 1 mg talc, Cold Avidin only 100 ug/mL): 0.31 OD
Efficiency of binding, OD ([4]; 1 mg talc, Cold Avidin only 200 ug/mL): 0.27 OD
Efficiency of binding, OD ([4]; 1 mg talc, Cold Avidin only 400 ug/mL): 0.3 OD
Efficiency of binding, OD ([4]; 1 mg talc, Cold Avidin only 4 mg/mL): 0.33 OD
Efficiency of binding, OD ([4]; 5 mg talc, Cold Avidin only 100 ug/mL): 1.38 OD
Efficiency of binding, OD ([4]; 5 mg talc, Cold Avidin only 200 ug/mL): 1.4 OD
Efficiency of binding, OD ([4]; 5 mg talc, Cold Avidin only 400 ug/mL): 1.01 OD
Efficiency of binding, OD ([4]; 5 mg talc, Cold Avidin only 4 mg/mL): 1.23 OD
avidin bound by talc [5]: > 2 nanograms of avidin per mg of talc
stability of binding of Avidin to talc [6]: unchanged at 48 hours
